Measured values reported in patent US20150274664A1 (MERCK SHARP & DOHME CORP., priority 2012, published 2015).

Target: T1, human GPR119 (Homo sapiens, UniProt Q8TDV5)
T1 construct: expressed in transfected cells; host or cells: HEK293
T1 sequence (Q8TDV5 1-335): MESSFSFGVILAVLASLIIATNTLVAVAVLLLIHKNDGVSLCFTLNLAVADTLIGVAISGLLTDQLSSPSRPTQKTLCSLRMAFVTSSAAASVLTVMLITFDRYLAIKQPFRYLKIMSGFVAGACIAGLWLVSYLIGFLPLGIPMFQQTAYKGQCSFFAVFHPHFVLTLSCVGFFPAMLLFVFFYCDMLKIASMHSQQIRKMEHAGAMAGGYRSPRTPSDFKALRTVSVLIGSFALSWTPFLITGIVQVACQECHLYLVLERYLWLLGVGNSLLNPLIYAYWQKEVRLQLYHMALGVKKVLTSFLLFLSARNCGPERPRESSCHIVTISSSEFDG
Test: Measurement of GPR119 signaling using LANCE 384-well cAMP kit (LCMP assay)
Format: cell-based
Settings: HEK293 cells stably transfected with human GPR119
Procedure: Measurement of GPR119 Signaling Using LANCE 384-Well cAMP Kit (LCMP Assay)
Human embryonic kidney (HEK) 293 cell lines stably transfected with human GPR119 were maintained in DMEM media containing FBS, penicillin-streptomycin, HEPES, and hygromycin. For the cAMP assay, the transfected cells were harvested using a non-enzymatic cell dissociation solution (GIBCO 2672), pelleted and resuspended in stimulation buffer (DMEM, 25 mM Hepes, 0.1% BSA, pH 7.4 in the presence of 100 μM phosphodiesterase inhibitors). The adenylate cyclase assay was constructed following the LANCE™ cAMP Kit (Perkin Elmer, AD0264) instructions. Briefly, cells with Alexa Fluor® 647-anti cAMP antibody were incubated with 10 point series diluted test article in stimulation buffer with a final concentration of 2.5% DMSO for 45 minutes. The reaction was stopped by incubating with the supplied detection buffer containing the europium chelate of the Eu-SA/Biotin-cAMP tracer for 3 hours. The assay was performed in duplicate in a 384 well plate for duplicate plates. Fluorescence at 665 nm was measured using a PHERAstar instrument. Basal activity was determined using a DMSO control and maximum response was defined as cAMP stimulation produced by an internal agonist control. Standard cAMP concentrations were assayed concurrently for conversion of fluorescence signal to cAMP level. The data was analyzed using 4-parameter curve fit in Microsoft Excel.

CS(=O)(=O)c1ccc(COC[C@H]2C[C@@H]2C2CCN(c3ncc(Cl)cn3)CC2)c(F)c1 [Example 4]
EC50: 1.6 nM

CCc1cnc(N2CCC([C@H]3C[C@@H]3COCc3ccc(S(C)(=O)=O)cc3F)CC2)nc1 [Example 8, 5-ethyl-2-(4-((1R,2S)-2-(((2-fluoro-4-(methylsulfonyl)benzyl)oxy)methyl)cyclopropyl)piperidin-1-yl)pyrimidine]
EC50: 1.3 nM

CCc1cnc(N2CCC([C@H]3C[C@@H]3COCc3ccc(S(=O)(=O)CC)cc3)CC2)nc1 [Example 9, 5-ethyl-2-(4-((1R,2S)-2-(((4-(ethylsulfonyl)benzyl)oxy)methyl)cyclopropyl)piperidin-1-yl)pyrimidine]
EC50: 22 nM

COCc1cnc(N2CCC([C@H]3C[C@@H]3COCc3ccc(S(C)(=O)=O)cc3F)CC2)nc1 [Example 11, 2-(4-((1R,2S)-2-(((2-fluoro-4-(methylsulfonyl)benzyl)oxy)methyl)cyclopropyl)piperidin-1-yl)-5-(methoxymethyl)pyrimidine]
EC50: 7.1 nM

COCc1cnc(N2CCC([C@H]3C[C@@H]3COCc3ccc(S(C)(=O)=O)cc3)CC2)nc1 [Example 12, 5-(methoxymethyl)-2-(4-((1R,2S)-2-(((4-(methylsulfonyl)benzyl)oxy)methyl)cyclopropyl)piperidin-1-yl)pyrimidine]
EC50: 14 nM

CCS(=O)(=O)c1ccc(COC[C@H]2C[C@@H]2C2CCN(c3ncc(COC)cn3)CC2)cc1 [Example 13, 2-(4-((1R,2S)-2-(((4-(ethylsulfonyl)benzyl)oxy)methyl)cyclopropyl)piperidin-1-yl)-5-(methoxymethyl)pyrimidine]
EC50: 24 nM

CC1(OC(=O)N2CCC([C@H]3C[C@@H]3COCc3ccc(S(C)(=O)=O)cc3F)CC2)CC1 [Example 14, 1-methylcyclopropyl 4-((1R,2S)-2-((2-fluoro-4-(methylsulfonyl)benzyloxy)methyl)cyclopropyl)piperidine-1-carboxylate]
EC50: 8.8 nM

CC1(OC(=O)N2CCC([C@H]3C[C@@H]3COCc3ccc(CC(=O)N4CCC4)cc3F)CC2)CC1 [Example 23, 1-methylcyclopropyl 4-((1R,2S)-2-((4-(2-(azetidin-1-yl)-2-oxoethyl)-2-fluorobenzyloxy)methyl)cyclopropyl)piperidine-1-carboxylate]
EC50: 13 nM

CS(=O)(=O)c1ccc(OCC[C@@H]2C[C@H]2C2CCN(c3ncc(Cl)cn3)CC2)cc1F [Example 24, 5-chloro-2-(4-((1S,2S)-2-(2-(3-fluoro-4-(methylsulfonyl)phenoxy)ethyl)cyclopropyl)piperidin-1-yl)pyrimidine]
EC50: 8.3 nM

CS(=O)(=O)c1ccc(OCC[C@H]2C[C@@H]2C2CCN(c3ncc(Cl)cn3)CC2)cc1F [Example 25, 5-chloro-2-(4-((1R,2R)-2-(2-(3-fluoro-4-(methylsulfonyl)phenoxy)ethyl)cyclopropyl)piperidin-1-yl)pyrimidine]
EC50: 4.1 nM

CCc1cnc(N2CCC([C@@H]3C[C@H]3CCOc3ccc(S(C)(=O)=O)cc3F)CC2)nc1 [Example 26, 5-ethyl-2-(4-((1S,2S)-2-(2-(2-fluoro-4-(methylsulfonyl)phenoxy)ethyl)cyclopropyl)piperidin-1-yl)pyrimidine]
EC50: 9.4 nM

CCc1cnc(N2CCC([C@H]3C[C@@H]3CCOc3ccc(S(C)(=O)=O)c(F)c3)CC2)nc1 [Example 27, 5-ethyl-2-(4-((1R,2R)-2-(2-(3-fluoro-4-(methylsulfonyl)phenoxy)ethyl)cyclopropyl)piperidin-1-yl)pyrimidine]
EC50: 5.5 nM

CCc1cnc(N2CCC([C@H]3C[C@@H]3CCOc3ccc(S(C)(=O)=O)cc3F)CC2)nc1 [Example 28, 5-ethyl-2-(4-((1R,2R)-2-(2-(2-fluoro-4-(methylsulfonyl)phenoxy)ethyl)cyclopropyl)piperidin-1-yl)pyrimidine]
EC50: 8.8 nM

CS(=O)(=O)c1ccc(OCC[C@@H]2C[C@H]2C2CCN(c3ncc(Cl)cn3)CC2)c(F)c1 [Example 29, 5-chloro-2-(4-((1S,2S)-2-(2-(2-fluoro-4-(methylsulfonyl)phenoxy)ethyl)cyclopropyl)piperidin-1-yl)pyrimidine]
EC50: 17 nM

CS(=O)(=O)c1ccc(OCC[C@H]2C[C@@H]2C2CCN(c3ncc(Cl)cn3)CC2)c(F)c1 [Example 30, 5-chloro-2-(4-((1R,2R)-2-(2-(2-fluoro-4-(methylsulfonyl)phenoxy)ethyl)cyclopropyl)piperidin-1-yl)pyrimidine]
EC50: 23 nM

CCc1cnc(N2CCC([C@@H]3C[C@H]3CCOc3ccc(S(C)(=O)=O)c(F)c3)CC2)nc1 [Example 31, 5-ethyl-2-(4-((1S,2S)-2-(2-(3-fluoro-4-(methylsulfonyl)phenoxy)ethyl)cyclopropyl)piperidin-1-yl)pyrimidine]
EC50: 16 nM

CCc1cnc(N2CCC([C@@H]3C[C@H]3CCOc3ccc(S(=O)(=O)CC)cc3F)CC2)nc1 [Example 32, 5-ethyl-2-(4-((1S,2S)-2-(2-(4-(ethylsulfonyl)-2-fluorophenoxy)ethyl)cyclopropyl)piperidin-1-yl)pyrimidine]
EC50: 18 nM

COCc1cnc(N2CCC([C@H]3C[C@@H]3CCOc3ccc(S(C)(=O)=O)c(F)c3)CC2)nc1 [Example 33, 2-(4-((1R,2R)-2-(2-(3-fluoro-4-(methylsulfonyl)phenoxy)ethyl)cyclopropyl)piperidin-1-yl)-5-(methoxymethyl)pyrimidine]
EC50: 15 nM

O=C(Cc1ccc(OCC[C@H]2C[C@@H]2C2CCN(c3ncc(Cl)cn3)CC2)cc1F)N1CCC1 [Example 34, 1-(azetidin-1-yl)-2-(4-(2-((1R,2R)-2-(1-(5-chloropyrimidin-2-yl)piperidin-4-yl)cyclopropyl)ethoxy)-2-fluorophenyl)ethanone]
EC50: 0.64 nM

O=C(Cc1ccc(OCC[C@H]2C[C@@H]2C2CCN(c3ncc(Cl)cn3)CC2)c(F)c1)N1CCC1 [Example 35, 1-(azetidin-1-yl)-2-(4-(2-((1R,2R)-2-(1-(5-chloropyrimidin-2-yl)piperidin-4-yl)cyclopropyl)ethoxy)-3-fluorophenyl)ethanone]
EC50: 4.6 nM

CCc1cnc(N2CCC([C@@H]3C[C@H]3CCOc3ccc(CC(=O)N4CCC4)c(F)c3)CC2)nc1 [Example 36, 1-(azetidin-1-yl)-2-(4-(2-((1S,2S)-2-(1-(5-ethylpyrimidin-2-yl)piperidin-4-yl)cyclopropyl)ethoxy)-2-fluorophenyl)ethanone]
EC50: 5.5 nM

Fc1cc(OCC[C@H]2C[C@@H]2C2CCN(c3ncc(Cl)cn3)CC2)ccc1-n1cnnn1 [Example 37, 5-chloro-2-(4-((1R,2R)-2-(2-(3-fluoro-4-(1H-tetrazol-1-yl)phenoxy)ethyl)cyclopropyl)piperidin-1-yl)pyrimidine]
EC50: 6.8 nM

CCc1cnc(N2CCC([C@H]3C[C@@H]3CCOc3ccc(-n4cnnn4)c(F)c3)CC2)nc1 [Example 38, 5-ethyl-2-(4-((1R,2R)-2-(2-(3-fluoro-4-(1H-tetrazol-1-yl)phenoxy)ethyl)cyclopropyl)piperidin-1-yl)pyrimidine]
EC50: 5.3 nM

CCc1cnc(N2CCC([C@@H]3C[C@H]3CCOc3ccc(-n4cnnn4)c(F)c3)CC2)nc1 [Example 39, 5-ethyl-2-(4-((1S,2S)-2-(2-(3-fluoro-4-(1H-tetrazol-1-yl)phenoxy)ethyl)cyclopropyl)piperidin-1-yl)pyrimidine]
EC50: 8.7 nM
